Results on eight compounds are retold here after article PMC6572184, “New γ-Halo-δ-lactones and δ-Hydroxy-γ-lactones with Strong Cytotoxic Activity” (Molecules, 2019).

Series [1] can be described thus: MTT reduction cytotoxicity assay. The series is classed as cell-based, mouse. The note with it: mouse, L929 cells (mouse fibroblasts), read-out: mean percentage of viable cells ± SD. How it is done: (§1) Cell cultures: The L929 mouse fibroblasts and human gastric adenocarcinoma cell line AGS were used for in vitro cytotoxicity assays. The cells were maintained under standard conditions (37 ^∘ C, 5% CO 2 ) in 25 cm^2 tissue culture flasks in RPMI-1640 medium supplemented with 10% fetal bovine serum (FBS) and antibiotics: 100 U/mL penicillin and 100 μ g/mL streptomycin. The cell suspension containing 10 ^8 cells in 1 mL, was obtained by treatment of confluent monolayers with 0.25% trypsin solution, washed and subcultured. Cell cultures were supplemented with medium to maintain them in log phase growth. The viability of the cells was assessed by exclusion of trypan blue dye.
(§2) Measurements of cellular metabolic activity and global growth inhibition: L929 cells were seeded into 96-well plates (2 × 10 ^5 cells/well) for 24 h, at 37 ^∘ C, 5% CO2 . Tested compounds 5a–c, 6a–c, 7a–c, 8a–c, 9b,c, 10b,c, 12a and 13a were diluted serially in RPMI-1640 medium in concentrations of 50, 20, 10, 5, 0.5 and 0.1 μ g/mL, added to the cells (100 μ L/well), and incubated under standard conditions for 24 h. The potential harmful effect of lactones on L929 and AGS cells was assessed by the ability of the cells to reduce 3-(4,5-dimethylthiazol-2-yl)-2,5-diphenyltetrazolium bromide (MTT) to formazan. The solution of MTT (5 mg/mL in PBS), was added to each well and the plates were incubated for 4h at 37 ^∘ C. Formazan crystals were dissolved with acidic isopropanol (0.1 M HCl in absolute isopropanol) and the plates were read in a plate reader (Victor 2) at 570 nm. The percentage of MTT reduction was calculated by comparing the absorbance of treated cells to that of untreated control cells. Results are expressed as the mean percentage of viable cells ± standard deviation (SD) of four independent experiments. Statistical significance was accepted at a p-value < 0.05.

For series [2], the system named is AGS cell lines (human gastric adenocarcinoma). Kind of series: MTT reduction cytotoxicity assay. The format is cell-based. To be noted: for mean percentage of viable cells ± SD: 24 h. The protocol: as §1, §2
Series [3] can be described thus: MTT reduction cytotoxicity assay. The series is classed as cell-based, human. The note with it: human, AGS cells (human gastric adenocarcinoma), 24 h, read-out: mean percentage of viable cells ± SD. The protocol: as §1, §2
Background: Tetrazolium dyes change colour on reduction, which living cells bring about.

In series [4] the test system is Escherichia coli ATCC 8739. Kind of series: Bactericidal activity, CFU counting method. The format is cell-based. To be noted: E. coli ATCC 8739; 18 h at 37 °C; Control 9.47, Control with DMSO 9.30. How it is done: (§3) The bacterial cultures: Escherichia coli ATCC 8739 and Staphylococcus aureus ATCC 65389 were grown on Luria–Bertani Agar for 18 h at 37 ^∘ C. The strain suspension was prepared in 0.85% saline, with an optical density equivalent to a 0.5 McFarland standard. Next, the following mixtures were prepared: 180 μ L of sterile enriched broth (BTL), 10 μ L of the bacterial suspension and 10 μ L of the tested compound (range 0.1–50 μ g/mL) solubilized in DMSO. As a negative control, only DMSO was added. As a sterility control, 180 μ L of BTL and 20 μ L saline were used. The microtiter plate was incubated at 37 ^∘ C for 18 h. The colony forming unit (CFU) method was used to evaluate the microbial population. The experiment was repeated three times. Gentamicin was used as the reference antibiotic.

The test system of series [5] is Staphylococcus aureus ATCC 65389. Description: Bactericidal activity, CFU counting method. To be noted: S. aureus ATCC 65389; for Number of CFU/mL (× 10^7): 18 h at 37 °C, Control 21.36, Control with DMSO 20.85. The format is cell-based. How it is done: as §3
Series [6] relates to L929 cell lines (mouse fibroblasts). Kind of series: MTT reduction cytotoxicity assay. To be noted: 24 h. The series is classed as cell-based. The protocol: as §1, §2

Where two headings read alike, the source gives them in different places.

The term melting point denotes the temperature of the solid-liquid transition. In turn, `C[C@@H]1CC(=O)O[C@@H]1C(O)c1ccc(F)cc1` (relative stereo) [13c, Cis-5-((4-fluorophenyl)(hydroxy)methyl)-dihydro-4-methylfuran-2(3H)-one] gave a melting point of 118 to 119 °C.
Compound `C[C@@H]1CC(=O)O[C@H]1C(O)c1ccc(F)cc1` (relative stereo) [12c, Trans-5-((4-fluorophenyl)(hydroxy)methyl)-dihydro-4-methylfuran-2(3H)-one] had a melting point of 118 to 119 °C.
In turn, `C[C@@H]1CC(=O)O[C@@H]1C(O)c1ccccc1` (relative stereo) [13b, Cis-dihydro-5-(hydroxy(phenyl)methyl)-4-methylfuran-2(3H)-one] had a melting point of 89 to 91 °C.
Compound `C[C@@H]1CC(=O)O[C@@H]1C(I)c1ccccc1` (relative stereo) [11b, Cis-dihydro-5-(iodo(phenyl)methyl)-4-methylfuran-2(3H)-one] yielded a melting point of 86 to 87 °C.
For orientation: IC50 means the concentration at which inhibition is half-maximal. A low value points to greater potency in that assay. Consider `C[C@@H]1CC(=O)O[C@H]1[C@@H](O)c1cccc2ccccc12` (mixture of isomers) [12a, Trans-dihydro-5-((S)-hydroxy(naphthalen-1-yl)methyl)-4-methylfuran-2(3H)-one], for which the viability at 24 h, 0.1 μg/mL in series [1] (0.1 μg/mL) was 19 ± 0.15%; in series [3] (0.1 μg/mL), 39 ± 0.09%. The viability at 24 h, 0.5 μg/mL in series [1] (0.5 μg/mL) came to 15 ± 0.05%; in series [3] (0.5 μg/mL), 26 ± 0.05%. In addition, the viability at 24 h, 5 μg/mL in series [1] (5 μg/mL) turned out to be 10 ± 0.02%; in series [3] (5 μg/mL), 22 ± 0.09%. In addition, the viability at 24 h, 10 μg/mL was determined as 8 ± 0.06% in series [1] (10 μg/mL) and 18 ± 0.05% in series [3] (10 μg/mL). Besides, the viability at 24 h, 20 μg/mL in series [1] (20 μg/mL) was determined as 3 ± 0.03%; in series [3] (20 μg/mL), 13 ± 0.08%. Moreover, the viability at 24 h, 50 μg/mL in series [1] (50 μg/mL) came to 2 ± 0.06%; in series [3] (50 μg/mL), 9 ± 0.1%. This compound also registered an IC50 in series [2] (Homo sapiens) of 4300 nM. In addition, the “Number of CFU/mL (× 10^7)” value in series [4] is 9.43 × 10^7 CFU/mL; in series [5] it was 21.15 × 10^7 CFU/mL. The “bactericidal activity (in words)” value in series [5] is listed as “did not show bactericidal activity”.
`C[C@@H]1CC(=O)O[C@H]1C(O)c1ccccc1` (relative stereo) [12b, Trans-dihydro-5-(hydroxy(phenyl)methyl)-4-methylfuran-2(3H)-one] yielded a melting point of 86 to 87 °C.
Regarding `CC1CC(=O)OC(c2cccc3ccccc23)C1Br` (mixture of isomers) [8a, Cis,trans-5-bromo-tetrahydro-4-methyl-6-(naphthalen-1-yl)pyran-2-one], the “mean percentage of viable cells ± SD” value in series [6] (0.1 μg/mL) is 23 ± 0.03%; in series [6] (0.5 μg/mL), 19 ± 0.03%; in series [6] (5 μg/mL), 14 ± 0.03%; in series [6] (10 μg/mL), 7 ± 0.06%; in series [6] (20 μg/mL) it was 4 ± 0.02%; in series [6] (50 μg/mL), 1 ± 0.15%. The “mean percentage of viable cells ± SD” value turned out to be 61 ± 0.10% in series [2] (0.1 μg/mL); 47 ± 0.06% in series [2] (0.5 μg/mL); 39 ± 0.09% in series [2] (5 μg/mL); 25 ± 0.05% in series [2] (10 μg/mL); 17 ± 0.07% in series [2] (20 μg/mL); 9 ± 0.09% in series [2] (50 μg/mL). Moreover, the IC50 in series [2] worked out at 1600 nM. Besides, the “Number of CFU/mL (× 10^7)” value in series [4] is listed as 7.14 × 10^7 CFU/mL; in series [5] it was 9.29 × 10^7 CFU/mL. The “less CFU/mL (reduction of the number of CFU/mL)” value in series [5] (versus control) is given as 83%.
For the compound `C[C@@H]1CC(=O)O[C@@H]1C(I)c1ccc(F)cc1` (relative stereo) [11c, Cis-5-((4-fluorophenyl)iodomethyl)-dihydro-4-methylfuran-2(3H)-one], the melting point fell in the range of 118 to 119 °C.
